Patent US12441725B2, “ISO-citrate dehydrogenase (IDH) inhibitor” (ZHEJIANG METON PHARMACEUTICAL CO., LTD, priority 2019, dated 2025)

Legend:
[1] = target: T1, IDH1 R132H (Homo sapiens, UniProt O75874, R132H); test: Biochemical assay for IDH inhibition (NADPH fluorescence), mutant IDH1 R132H; settings: 50 nM IDH1-R132H, 1 hour pre-incubation, in triplet
T1 construct: 6xHis
In short: (§1)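 The read-out was the linear-phase loss of NADPH fluorescence (340/460 nm) over 15 min, background-subtracted and normalized to DMSO wells, giving triplicate IC50 values. Beforehand, R132H (50 nM) or R132C (25 nM) was exposed to compound for 1 h at room temperature with 1.33 mM α-KG at pH 7.5, and the reaction was triggered by adding an 80 μM NADPH solution.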

[2] = target: T2, IDH (endogenous IDH1 R132C) in HT1080 cell (Homo sapiens, UniProt O75874, R132C); test: Cell-based assay for IDH inhibition (decrease of D-2-HG) in HT1080 cells; settings: human fibrosarcoma cell line HT1080, 16 hours treatment, D-2-HG by LC-MS, in triplet
T2 construct: which harbor endogenous heterozygous IDH1 R132C and R132H mutation respectively and accumulate D-2-HG
In short: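 LC-MS/MS quantification of D-2-HG, normalized to glutamate, follows a 16 h compound exposure of IDH1 R132C HT1080 cells in DMEM with 10% FBS. Extraction uses pre-chilled 40% methanol/40% acetonitrile in water. Triplicate determinations; IC50 from D-2-HG levels relative to DMSO-treated cells.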

[3] = target: T3, IDH1 R132C (Homo sapiens, UniProt O75874, R132C); test: Biochemical assay for IDH inhibition (NADPH fluorescence), mutant IDH1 R132C; settings: 25 nM IDH1-R132C, 1 hour pre-incubation, in triplet
T3 construct: 6xHis
In short: as §1

T2 sequence (O75874 2-414 R132C): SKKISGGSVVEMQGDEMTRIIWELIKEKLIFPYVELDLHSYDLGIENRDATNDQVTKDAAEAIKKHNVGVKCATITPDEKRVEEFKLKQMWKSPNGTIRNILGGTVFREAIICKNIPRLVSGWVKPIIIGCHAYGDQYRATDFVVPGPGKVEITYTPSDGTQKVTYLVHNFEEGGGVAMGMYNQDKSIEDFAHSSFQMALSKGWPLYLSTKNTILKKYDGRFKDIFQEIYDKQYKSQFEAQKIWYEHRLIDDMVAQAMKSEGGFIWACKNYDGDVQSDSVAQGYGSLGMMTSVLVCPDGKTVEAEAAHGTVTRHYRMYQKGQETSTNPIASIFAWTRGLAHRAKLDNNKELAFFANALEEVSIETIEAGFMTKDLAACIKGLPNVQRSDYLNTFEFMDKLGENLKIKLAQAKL
T3 sequence (O75874 whole entry R132C): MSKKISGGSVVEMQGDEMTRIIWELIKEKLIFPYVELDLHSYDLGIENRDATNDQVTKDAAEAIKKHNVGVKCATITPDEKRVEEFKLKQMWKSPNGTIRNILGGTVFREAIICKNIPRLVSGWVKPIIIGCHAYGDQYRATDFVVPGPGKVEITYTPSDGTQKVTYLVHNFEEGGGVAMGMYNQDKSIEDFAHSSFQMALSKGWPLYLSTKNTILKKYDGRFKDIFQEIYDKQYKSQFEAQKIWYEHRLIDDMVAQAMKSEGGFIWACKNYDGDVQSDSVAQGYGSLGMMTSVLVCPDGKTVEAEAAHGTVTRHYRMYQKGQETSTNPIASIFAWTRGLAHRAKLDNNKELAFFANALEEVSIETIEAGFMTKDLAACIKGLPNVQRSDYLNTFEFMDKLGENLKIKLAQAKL
T1 sequence (O75874 whole entry R132H): as the sequence (O75874 whole entry R132C) above, with C132H counted along it

Structure (SMILES)	IC50 [1]	IC50 [2]	IC50 [3]
CCN1Cc2c(ccnc2N[C@@H](C)c2cc(F)c(-c3cc(C(F)(F)F)ccn3)cc2F)C1=O [Compound 115, (S)-4-((1-(2,5-difluoro-4-(4-(trifluoromethyl)pyridin-2-yl)phenyl)ethyl)amino)-2-ethyl-2,3-dihydro-1H-pyrrolo[3,4-c]pyridin-1-one]	< 100 nM	100 to 500 nM	100 to 500 nM
CCN1Cc2c(ccnc2N[C@@H](C)c2cc(F)c(-c3cc(C(C)(C)C)ncc3OC)cc2F)C1=O [Compound 116, (S)-4-((1-(4-(2-(tert-butyl)-5-methoxypyridin-4-yl)-2,5-difluorophenyl)ethyl)amino)-2-ethyl-2,3-dihydro-1H-pyrrolo[3,4-c]pyridin-1-one]	< 100 nM	< 100 nM	< 100 nM
CCN1Cc2c(ccnc2N[C@@H](C)c2cc(F)c(-c3nc(C(C)(C)C)ccc3OC)cc2F)C1=O [Compound 117, (S)-4-((1-(4-(6-(tert-butyl)-3-methoxypyridin-2-yl)-2,5-difluorophenyl)ethyl)amino)-2-ethyl-2,3-dihydro-1H-pyrrolo[3,4-c]pyridin-1-one]	< 100 nM	< 100 nM	< 100 nM
CCN1Cc2c(ccnc2N[C@@H](C)c2cc(F)c(-c3cc(C(C)(C)F)cc(CF)n3)cc2F)C1=O [Compound 118, (S)-4-((1-(2,5-difluoro-4-(6-(fluoromethyl)-4-(2-fluoropropan-2-yl)pyridin-2-yl)phenyl)ethyl)amino)-2-ethyl-2,3-dihydro-1H-pyrrolo[3,4-c]pyridin-1-one]	< 100 nM	< 100 nM	< 100 nM
CCN1Cc2c(ccnc2N[C@@H](C)c2cc(F)c(-c3cc(C(C)(C)F)cc(F)n3)cc2F)C1=O [Compound 119, (S)-4-((1-(2,5-difluoro-4-(6-fluoro-4-(2-fluoropropan-2-yl)pyridin-2-yl)phenyl)ethyl)amino)-2-ethyl-2,3-dihydro-1H-pyrrolo[3,4-c]pyridin-1-one]	< 100 nM	< 100 nM	< 100 nM
CCN1Cc2c(ccnc2N[C@@H](C)c2cc(F)c(-c3cc(C(C)(C)F)cc(OC)n3)cc2F)C1=O [Compound 120, (S)-4-((1-(2,5-difluoro-4-(4-(2-fluoropropan-2-yl)-6-methoxypyridin-2-yl)phenyl)ethyl)amino)-2-ethyl-2,3-dihydro-1H-pyrrolo[3,4-c]pyridin-1-one]	< 100 nM	< 100 nM	< 100 nM
CCN1Cc2c(ccnc2N[C@@H](C)c2cc(F)c(-c3cc(C(F)(F)F)cc(Cl)n3)cc2F)C1=O [Compound 121, (S)-4-((1-(4-(6-chloro-4-(trifluoromethyl)pyridin-2-yl)-2,5-difluorophenyl)ethyl)amino)-2-ethyl-2,3-dihydro-1H-pyrrolo[3,4-c]pyridin-1-one]	< 100 nM	500 to 1000 nM	100 to 500 nM
CCN1Cc2c(ccnc2N[C@@H](C)c2cc(F)c(-c3cc(C(F)(F)F)cc(C)n3)cc2F)C1=O [Compound 122, (S)-4-((1-(2,5-difluoro-4-(6-methyl-4-(trifluoromethyl)pyridin-2-yl)phenyl)ethyl)amino)-2-ethyl-2,3-dihydro-1H-pyrrolo[3,4-c]pyridin-1-one]	< 100 nM	100 to 500 nM	< 100 nM
CCN1Cc2c(ccnc2N[C@@H](C)c2cc(F)c(-c3cc(C(F)(F)F)cc(CF)n3)cc2F)C1=O [Compound 123, (S)-4-((1-(2,5-difluoro-4-(6-(fluoromethyl)-4-(trifluoromethyl)pyridin-2-yl)phenyl)ethyl)amino)-2-ethyl-2,3-dihydro-1H-pyrrolo[3,4-c]pyridin-1-one]	< 100 nM	100 to 500 nM	< 100 nM
CCN1Cc2c(ccnc2N[C@@H](C)c2cc(F)c(-c3cc(C4(C(F)(F)F)CC4)ccn3)cc2F)C1=O [Compound 124, (S)-4-((1-(2,5-difluoro-4-(4-(1-(trifluoromethyl)cyclopropyl)pyridin-2-yl)phenyl)ethyl)amino)-2-ethyl-2,3-dihydro-1H-pyrrolo[3,4-c]pyridin-1-one]	< 100 nM	< 100 nM	< 100 nM
C/C=C(\c1ccnc(-c2cc(F)c([C@H](C)Nc3nccc4c3CN(CC)C4=O)cc2F)c1)C(F)(F)F [Compound 125, (S,E)-4-((1-(2,5-difluoro-4-(4-(1,1,1-trifluorobut-2-en-2-yl)pyridin-2-yl)phenyl)ethyl)amino)-2-ethyl-2,3-dihydro-1H-pyrrolo[3,4-c]pyridin-1-one]	< 100 nM	< 100 nM	< 100 nM
CCN1Cc2c(ccnc2N[C@@H](C)c2cc(F)c(-c3cc(C4(C(F)(F)F)CC=NN4)ccn3)cc2F)C1=O (stereo partly drawn) [Compound 126, 4-(((1S)-1-(2,5-difluoro-4-(4-(5-(trifluoromethyl)-4,5-dihydro-1H-pyrazol-5-yl)pyridin-2-yl)phenyl)ethyl)amino)-2-ethyl-2,3-dihydro-1H-pyrrolo[3,4-c]pyridin-1-one]	< 100 nM	100 to 500 nM	100 to 500 nM
CCN1Cc2c(ccnc2N[C@@H](C)c2cc(F)c(-c3cc(C(C)(C)F)c(C)cn3)cc2F)C1=O [Compound 127, (S)-4-((1-(2,5-difluoro-4-(4-(2-fluoropropan-2-yl)-5-methylpyridin-2-yl)phenyl)ethyl)amino)-2-ethyl-2,3-dihydro-1H-pyrrolo[3,4-c]pyridin-1-one]	< 100 nM	< 100 nM	< 100 nM
CCN1Cc2c(ccnc2N[C@@H](C)c2cc(F)c(-c3cc(NC(C)(C)C)cc(C)n3)cc2F)C1=O [Compound 128, (S)-4-((1-(4-(4-(tert-butylamino)-6-methylpyridin-2-yl)-2,5-difluorophenyl)ethyl)amino)-2-ethyl-2,3-dihydro-1H-pyrrolo[3,4-c]pyridin-1-one]	< 100 nM	100 to 500 nM	100 to 500 nM
CCN1Cc2c(ccnc2N[C@@H](C)c2cc(F)c(-c3cc(OC(C)(C)C)cc(C)n3)cc2F)C1=O [Compound 129, (S)-4-((1-(4-(4-(tert-butoxy)-6-methylpyridin-2-yl)-2,5-difluorophenyl)ethyl)amino)-2-ethyl-2,3-dihydro-1H-pyrrolo[3,4-c]pyridin-1-one]	< 100 nM	< 100 nM	< 100 nM
CCN1Cc2c(ccnc2N[C@@H](C)c2cc(F)c(-c3cc(C(C)(C)F)ncn3)cc2F)C1=O [Compound 130, (S)-4-((1-(2,5-difluoro-4-(6-(2-fluoropropan-2-yl)pyrimidin-4-yl)phenyl)ethyl)amino)-2-ethyl-2,3-dihydro-1H-pyrrolo[3,4-c]pyridin-1-one]	< 100 nM	100 to 500 nM	100 to 500 nM
CCN1Cc2c(ccnc2N[C@@H](C)c2cc(F)c(-c3cc(C4(F)CC4)cc(C)n3)cc2F)C1=O [Compound 131, (S)-4-((1-(2,5-difluoro-4-(4-(1-fluorocyclopropyl)-6-methylpyridin-2-yl)phenyl)ethyl)amino)-2-ethyl-2,3-dihydro-1H-pyrrolo[3,4-c]pyridin-1-one]	< 100 nM	< 100 nM	< 100 nM
CCN1Cc2c(ccnc2N[C@@H](C)c2cc(F)c(-c3cc(C(C)(C)F)ncc3OC)cc2F)C1=O [Compound 132, (S)-4-((1-(2,5-difluoro-4-(2-(2-fluoropropan-2-yl)-5-methoxypyridin-4-yl)phenyl)ethyl)amino)-2-ethyl-2,3-dihydro-1H-pyrrolo[3,4-c]pyridin-1-one]	< 100 nM	100 to 500 nM	< 100 nM
CCN1Cc2c(ccnc2N[C@@H](C)c2cc(F)c(-c3cc(C(C)(C)F)c(F)c(C)n3)cc2F)C1=O [Compound 133, (S)-4-((1-(2,5-difluoro-4-(5-fluoro-4-(2-fluoropropan-2-yl)-6-methylpyridin-2-yl)phenyl)ethyl)amino)-2-ethyl-2,3-dihydro-1H-pyrrolo[3,4-c]pyridin-1-one]	< 100 nM	< 100 nM	< 100 nM
CCN1Cc2c(ccnc2N[C@@H](C)c2cc(F)c(-c3nc(C)cc(C(C)(C)F)c3F)cc2F)C1=O [Compound 134, (S)-4-((1-(2,5-difluoro-4-(3-fluoro-4-(2-fluoropropan-2-yl)-6-methylpyridin-2-yl)phenyl)ethyl)amino)-2-ethyl-2,3-dihydro-1H-pyrrolo[3,4-c]pyridin-1-one]	< 100 nM	< 100 nM	< 100 nM
CCN1Cc2c(ccnc2N[C@@H](C)c2cc(F)c(-c3cc(C(C)(C)F)c(OC)cn3)cc2F)C1=O [Compound 135, (S)-4-((1-(2,5-difluoro-4-(4-(2-fluoropropan-2-yl)-5-methoxypyridin-2-yl)phenyl)ethyl)amino)-2-ethyl-2,3-dihydro-1H-pyrrolo[3,4-c]pyridin-1-one]	< 100 nM	< 100 nM	< 100 nM
CCN1Cc2c(ccnc2N[C@@H](C)c2cc(F)c(-c3cc(C(C)(C)F)c(Cl)cn3)cc2F)C1=O [Compound 136, (S)-4-((1-(4-(5-chloro-4-(2-fluoropropan-2-yl)pyridin-2-yl)-2,5-difluorophenyl)ethyl)amino)-2-ethyl-2,3-dihydro-1H-pyrrolo[3,4-c]pyridin-1-one]	< 100 nM	< 100 nM	< 100 nM
